Among the data in patent US20250206724A1, “SUBSTITUTED 3-AMINO INDAZOLE DERIVATIVES AS KINASE INHIBITORS” (NERVIANO MEDICAL SCIENCES S.R.L., priority 2022, published 2025) are DC50 values, retold here.

Structures are written as SMILES. Counter-ions that a name gives are not always drawn.

The experiment concerns the target T1, CDK11A (Homo sapiens, UniProt Q9UQ88).
T1 sequence (Q9UQ88 346-783): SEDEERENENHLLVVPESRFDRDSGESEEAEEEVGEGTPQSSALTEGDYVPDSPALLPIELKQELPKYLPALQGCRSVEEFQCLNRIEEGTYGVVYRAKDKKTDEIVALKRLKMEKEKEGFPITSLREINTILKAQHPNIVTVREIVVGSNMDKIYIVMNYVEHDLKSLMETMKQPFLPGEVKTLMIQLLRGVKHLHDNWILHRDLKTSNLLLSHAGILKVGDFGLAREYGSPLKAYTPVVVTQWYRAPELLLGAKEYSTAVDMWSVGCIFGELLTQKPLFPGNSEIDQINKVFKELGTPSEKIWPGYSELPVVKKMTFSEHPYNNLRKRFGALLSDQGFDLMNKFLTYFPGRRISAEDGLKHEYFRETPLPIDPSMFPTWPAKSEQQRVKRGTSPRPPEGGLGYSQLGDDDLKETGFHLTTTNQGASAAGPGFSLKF
To be noted: displacement of SNS-032-Atto590 probe (0.002 μM) from CDK11A-p58 (0.032 uM), fluorescence polarization. (In general: Polarisation of emitted light reports the rotation of a fluorescent probe.)
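Also: compound preincubated 30 min with CDK11A-p58, then probe added and polarization (mP) read 15 min later, 0% displacement is probe plus enzyme, 100% is probe alone.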

Method: Biochemical Kinase Inhibition Assay on CDK11 in Displacement Assay Format
Displacement Assay Format
Fluorescence Polarization (FP) experiments were carried out at room temperature using no-binding black 384-well microplates (Corning, NY), in 50 mM Tris HCl, pH 8, 10 mM MgCl2, 1 mM DTT, 1 mM CHAPS in a final volume of 60 μl. The plate reader was the Pherastar microplate reader (BMG). Polarization values were read using excitation and emission wavelengths of 590 and 675 nm, respectively. All FP values are expressed as mP units.
Compounds were 4-folds serially diluted in 100% DMSO and added directly to the CDK11A-p58 solution using the pin tool (V & P Scientific): 0.2 ul of the different compound concentrations in 20 ul of enzyme solution. After an incubation of 30 minutes at r.t., 40 ul of probe solution were added. […] The Pherastar reading is performed after 15 minutes of all components incubation. For each assay, high controls (equivalent to 0% displacement) contain probe, CDK11A-p58, and 0.33% DMSO, whereas low controls (equivalent to 100% displacement) contain only probe and 0.33% DMSO. Controls are used for the Z′ and signal to background evaluation.
The data per each molecule are analyzed by Prism SW or an internally customized version of the SW package “Assay Explorer” which provides sigmoidal fittings of the ten-dilution curves for DC50 determination using a 4 parameters logistic equation:
where x is the logarithm of the inhibitor concentration, y is the response; y starts at bottom and goes to top with a sigmoid shape.

As for `N#Cc1ccc(Cl)c(-c2ccc3[nH]nc(NC(=O)[C@H]4CCC5(CCCC5)NC4)c3c2)c1` (single isomer, unassigned) [compound 205, (8-)-N-[5-(2-Chloro-5-cyanophenyl)-1H-indazol-3-yl]-6-azaspiro[4.5]decane-8-carboxamide hydrochloride], the DC50 amounted to 278 nM. Regarding `N#Cc1ccc(Cl)c(-c2ccc3[nH]nc(NC(=O)[C@@H]4CCC5(CCCCC5)NC4)c3c2)c1` (single isomer, unassigned) [compound 207, (3-)-N-[5-(2-Chloro-5-cyanophenyl)-1H-indazol-3-yl]-1-azaspiro[5.5]undecane-3-carboxamide], the DC50 was 229 nM.

In turn, `CC(C)(C)COC(=O)n1nc(NC(=O)[C@@H]2CCC(C)(C)NC2)c2cc(-c3cc(C#N)ccc3Cl)ccc21` (single isomer, unassigned) [cpd 224, 2,2-Dimethylpropyl 5-(2-chloro-5-cyanophenyl)-3-({[(3+)-6,6-dimethylpiperidin-3-yl]carbonyl}amino)-1H-indazole-1-carboxylate hydrochloride] returned a DC50 of 528 nM. With `CC(C)OC(=O)n1nc(NC(=O)[C@@H]2CCC(C)(C)NC2)c2cc(-c3cc(C#N)ccc3Cl)ccc21` (single isomer, unassigned) [cpd 226, hydrochloride] the figure was 1010 nM; with `CN1CCC(C(=O)Nc2n[nH]c3ccc(-c4c(F)cc(F)cc4F)cc23)CC1` [compound 123, 1-Methyl-N-[5-(2,4,6-trifluorophenyl)-1H-indazol-3-yl]piperidine-4-carboxamide hydrochloride], 665 nM.

`CN1CCC(C(=O)Nc2n[nH]c3ccc(-c4ccc(F)cc4F)cc23)CC1` [compound 124, N-[5-(2,4-Difluorophenyl)-1H-indazol-3-yl]-1-methylpiperidine-4-carboxamide hydrochloride] returned a DC50 of 637 nM. In turn, `CN1CCC(C(=O)Nc2n[nH]c3ccc(-c4cc(F)c(F)cc4F)cc23)CC1` [compound 126, 1-Methyl-N-[5-(2,4,5-trifluorophenyl)-1H-indazol-3-yl]piperidine-4-carboxamide hydrochloride] showed a DC50 of 913 nM. The same measure for `CN1CCC(C(=O)Nc2n[nH]c3ccc(-c4ccc(F)c(F)c4F)cc23)CC1` [compound 128, 1-Methyl-N-[5-(2,3,4-trifluorophenyl)-1H-indazol-3-yl]piperidine-4-carboxamide hydrochloride]: 468 nM; for `COc1c(F)cc(F)c(-c2ccc3[nH]nc(NC(=O)C4CCN(C)CC4)c3c2)c1F` [compound 131, 1-Methyl-N-[5-(2,4,6-trifluoro-3-methoxyphenyl)-1H-indazol-3-yl]piperidine-4-carboxamide hydrochloride]: 438 nM; for `Cc1ccc(-c2ccc3[nH]nc(NC(=O)C4CCN(C)CC4)c3c2)c(F)c1F` [compound 132, N-[5-(2,3-Difluoro-4-methylphenyl)-1H-indazol-3-yl]-1-methylpiperidine-4-carboxamide hydrochloride]: 409 nM.

On to `CN1CCC(C(=O)Nc2n[nH]c3ccc(-c4c(F)ccc(C#N)c4F)cc23)CC1` [compound 134, N-[5-(3-Cyano-2,6-difluorophenyl)-1H-indazol-3-yl]-1-methylpiperidine-4-carboxamide], for which the DC50 came out at 125 nM. With `CN1CCC(C(=O)Nc2n[nH]c3ccc(-c4ccc(O)c(C#N)c4)cc23)CC1` [compound 135, N-[5-(3-Cyano-4-hydroxyphenyl)-1H-indazol-3-yl]-1-methylpiperidine-4-carboxamide hydrochloride] the figure was 786 nM; with `CN1CCC(C(=O)Nc2n[nH]c3ccc(-c4cc(F)ccc4C#N)cc23)CC1` [compound 136, N-[5-(2-Cyano-5-fluorophenyl)-1H-indazol-3-yl]-1-methylpiperidine-4-carboxamide hydrochloride], 486 nM; with `CN1CCC(C(=O)Nc2n[nH]c3ccc(-c4cc([N+](=O)[O-])ccc4Cl)cc23)CC1` [compound 137, N-[5-(2-Chloro-5-nitrophenyl)-1H-indazol-3-yl]-1-methylpiperidine-4-carboxamide trifluoroacetate], 70 nM.

For the compound `CN1CCC(C(=O)Nc2n[nH]c3ccc(-c4c(F)cc(O)cc4F)cc23)CC1` [compound 138, N-[5-(2,6-Difluoro-4-hydroxyphenyl)-1H-indazol-3-yl]-1-methylpiperidine-4-carboxamide trifluoroacetate], the DC50 was found to be 376 nM. `CCCCN1CCC(C(=O)Nc2n[nH]c3ccc(-c4cc(C#N)ccc4Cl)cc23)CC1` [compound 140, 1-Butyl-N-[5-(2-chloro-5-cyanophenyl)-1H-indazol-3-yl]piperidine-4-carboxamide hydrochloride]: the DC50 came to 68 nM.

Regarding `CCCN1CCC(C(=O)Nc2n[nH]c3ccc(-c4cc(C#N)ccc4Cl)cc23)CC1` [compound 141, N-[5-(2-Chloro-5-cyanophenyl)-1H-indazol-3-yl]-1-propylpiperidine-4-carboxamide hydrochloride], the DC50 is 79 nM. Turning to `CCCCCN1CCC(C(=O)Nc2n[nH]c3ccc(-c4cc(C#N)ccc4Cl)cc23)CC1` [compound 142, N-[5-(2-Chloro-5-cyanophenyl)-1H-indazol-3-yl]-1-pentylpiperidine-4-carboxamide hydrochloride], the DC50 came to 95 nM. The compound `CC(C)N1CCC(C(=O)Nc2n[nH]c3ccc(-c4cc(C#N)ccc4Cl)cc23)CC1` [compound 143, N-[5-(2-Chloro-5-cyanophenyl)-1H-indazol-3-yl]-1-(propan-2-yl)piperidine-4-carboxamide hydrochloride] returned a DC50 of 89 nM. With `CNC1CCC(C(=O)Nc2n[nH]c3ccc(-c4c(Cl)cccc4Cl)cc23)CC1` (centres unmarked) [compound 144, N-[5-(2,6-Dichlorophenyl)-1H-indazol-3-yl]-4-(methylamino)cyclohexanecarboxamide hydrochloride] the figure was 110 nM. With `CNC1CC(C(=O)Nc2n[nH]c3ccc(-c4cc(C#N)ccc4Cl)cc23)C1` (centres unmarked) [compound 146, N-[5-(2-Chloro-5-cyanophenyl)-1H-indazol-3-yl]-3-(methylamino)cyclobutanecarboxamide hydrochloride] the figure was 23 nM; with `CN(C)C1CC(C(=O)Nc2n[nH]c3ccc(-c4cc(C#N)ccc4Cl)cc23)C1` (centres unmarked) [compound 147, N-[5-(2-Chloro-5-cyanophenyl)-1H-indazol-3-yl]-3-(dimethylamino)cyclobutanecarboxamide hydrochloride], 108 nM; with `CC(C)NC1CC(C(=O)Nc2n[nH]c3ccc(-c4cc(C#N)ccc4Cl)cc23)C1` (centres unmarked) [compound 148, N-[5-(2-Chloro-5-cyanophenyl)-1H-indazol-3-yl]-3-(propan-2-ylamino)cyclobutanecarboxamide hydrochloride], 20 nM. With `N#Cc1ccc(Cl)c(-c2ccc3[nH]nc(NC(=O)C4CC(NC5CCC5)C4)c3c2)c1` (centres unmarked) [compound 153, N-[5-(2-Chloro-5-cyanophenyl)-1H-indazol-3-yl]-3-(cyclobutylamino)cyclobutanecarboxamide hydrochloride] the figure was 41 nM. Turning to `N#Cc1ccc(Cl)c(-c2ccc3[nH]nc(NC(=O)C4CC(NC5CCCC5)C4)c3c2)c1` (centres unmarked) [compound 154, N-[5-(2-Chloro-5-cyanophenyl)-1H-indazol-3-yl]-3-(cyclopentylamino)cyclobutanecarboxamide hydrochloride], the DC50 is 40 nM. With `N#Cc1ccc(Cl)c(-c2ccc3[nH]nc(NC(=O)C4CC(NC5CC5)C4)c3c2)c1` (centres unmarked) [compound 155, N-[5-(2-Chloro-5-cyanophenyl)-1H-indazol-3-yl]-3-(cyclopropylamino)cyclobutanecarboxamide hydrochloride] the figure was 53 nM; with `O=C(Nc1n[nH]c2ccc(-c3c(Cl)cccc3Cl)cc12)C1CCN(C2CC2)CC1` [compound 158, 1-Cyclopropyl-N-[5-(2,6-dichlorophenyl)-1H-indazol-3-yl]piperidine-4-carboxamide hydrochloride], 695 nM; with `O=C(Nc1n[nH]c2ccc(-c3c(Cl)cccc3Cl)cc12)C12CCN(CC1)CC2` [compound 160, N-[5-(2,6-Dichlorophenyl)-1H-indazol-3-yl]-1-azabicyclo[2.2.2]octane-4-carboxamide], 221 nM. The same measure for `O=C(C[C@@H]1CCCN1)Nc1n[nH]c2ccc(-c3c(Cl)cccc3Cl)cc12` [compound 162, N-[5-(2,6-Dichlorophenyl)-1H-indazol-3-yl]-2-[(2S)-pyrrolidin-2-yl]acetamide hydrochloride]: 792 nM; for `O=C(CC1CCNCC1)Nc1n[nH]c2ccc(-c3c(Cl)cccc3Cl)cc12` [compound 163, N-[5-(2,6-Dichlorophenyl)-1H-indazol-3-yl]-2-(piperidin-4-yl)acetamide hydrochloride]: 576 nM. As for `NC[C@H]1CC[C@H](C(=O)Nc2n[nH]c3ccc(-c4c(Cl)cccc4Cl)cc23)CC1` [compound 164, trans-4-(Aminomethyl)-N-[5-(2,6-dichlorophenyl)-1H-indazol-3-yl]cyclohexanecarboxamide hydrochloride], the DC50 is 151 nM. With `CN(C)C1CCC(C(=O)Nc2n[nH]c3ccc(-c4c(Cl)cccc4Cl)cc23)CC1` (centres unmarked) [compound 166, N-[5-(2,6-Dichlorophenyl)-1H-indazol-3-yl]-4-(dimethylamino)cyclohexanecarboxamide hydrochloride] the figure was 133 nM.
